Laboratory results published in patent US20250163057A1, “DCN-1 MODULATING COMPOUNDS AND METHODS OF USE THEREOF” (Cellarity, Inc., priority 2023, published 2025).
Like-named read-outs stand apart in the source and are kept apart here.

Biological target: DCN1 (DCUND1) protein PONY domain (Homo sapiens (Human), UniProt Q96GG9)
Assay: TR-FRET assay, DCN1 binding with FAM-labeled probe
Protocol: A TR-FRET assay was performed to evaluate the ability of the compounds to bind the DCN-1 protein.
The TR-FRET assay was designed following the Scott et al. protocol (Scott et al., Nat Chem Biol. 2017 August; 13(8): 850-857. Doi:10.1038/nchembio.2386). The recombinant form of the DCN1 (DCUND1) protein PONY domain was produced using an E. coli expression system at Viva Biotech (China). The DCN1 protein was biotinylated (EZ sulfo-NHS-LC-biotin; Thermofisher) for labeling with streptavidin terbium (Tb) cryptate in the reaction. The probe was changed to a non-covalent DCN1 inhibitor labeled with carboxyfluorescein (FAM; Zhou et al., Nat Commun. 2017; 8: 1150. Doi: 10.1038/s41467-017-01243-7). Buffer conditions were modified to enhance protein stability by exchanging Tween20 for TritonX and increasing NaCl to 200 mM. The compounds were screened against 5 nM DCN1 and 20 nM FAM-probe or 0.31 nM DCN1 and 900 nM total probe (100 nM FAM-labeled plus 800 nM unlabeled). The TR-FRET ratio between Tb-DCN1 and the FAM-labeled probe was measured in a 384-well opti-plate (Perkin Elmer) using a plate reader (BMG) at 1, 5, and 24 hrs after treatment with compound (final DMSO concentration of 0.1%).

[1] = 24 hr after treatment with compound, read-out: TR FRET IC50 24 hr
[2] = TR FRET IC50 1 hr (nM), 1 hr after treatment with compound
[3] = read-out: TR FRET IC50 1 hr, 1 hr after treatment with compound

DCN1 (DCUND1) protein PONY domain, sequence (Q96GG9 60-248): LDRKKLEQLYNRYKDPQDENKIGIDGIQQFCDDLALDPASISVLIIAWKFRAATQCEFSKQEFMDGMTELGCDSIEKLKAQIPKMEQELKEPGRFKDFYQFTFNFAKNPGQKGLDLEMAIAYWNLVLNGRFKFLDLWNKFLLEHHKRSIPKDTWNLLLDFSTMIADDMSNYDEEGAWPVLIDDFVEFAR

SMILES	IC50 [1]	IC50 [2]	IC50 [3]
CCN1C(=O)[C@@H](NC(=O)c2cccc(C(F)(F)F)c2)[C@@H](c2ccc(F)cc2)c2c(C/C=C/C(=O)NCCCN(C)C)nn(-c3ccccc3)c21 (racemic) [Compound I-99]	200 to 1000 nM	200 to 1000 nM	
CCN1C(=O)[C@@H](NC(=O)c2cccc(C(F)(F)F)c2)[C@@H](c2ccc(F)cc2)c2c(CNC(=O)C3=CCCN(C)C3)nn(-c3ccccc3)c21 (racemic) [Compound I-28]	≤ 200 nM	200 to 1000 nM	
CCN1C(=O)[C@@H](NC(=O)c2cccc(C(F)(F)F)c2C)[C@@H](C2CC2)c2c(C(=O)N3[C@H](C#N)C[C@H]4C[C@H]43)nn(C3CCOCC3)c21 [Compound I-468]	≤ 200 nM		≤ 200 nM
CCN1C(=O)[C@@H](NC(=O)c2cccc(C(F)(F)F)c2)[C@@H](c2ccc(F)cc2)c2c(CNC(=O)/C=C/C(N)=O)nn(-c3ccccc3)c21 (racemic) [Compound I-64, rac-N1-(((4R,5R)-7-ethyl-4-(4-fluorophenyl)-6-oxo-1-phenyl-5-(3-(trifluoromethyl)benzamido)-4,5,6,7-tetrahydro-1H-pyrazolo[3,4-b]pyridine-3-yl)methyl)fumaramide]	200 to 1000 nM	1000 to 3000 nM	
CCN1C(=O)[C@@H](NC(=O)C23CC(C(F)(F)F)(C2)C3)[C@@H](C2CC2)c2c(C(=O)N3[C@H](C#N)C[C@H]4C[C@H]43)nn(C3CCOCC3)c21 [Compound I-701]	1000 to 3000 nM	1000 to 3000 nM	
CCN1C(=O)[C@@H](NC(=O)c2ccc3c(c2)CCO3)[C@@H](C2CC2)c2c(C(=O)N3[C@H](C#N)C[C@H]4C[C@H]43)nn(C3CCOCC3)c21 [Compound I-547]	≤ 200 nM	200 to 1000 nM	
CCN1C(=O)[C@@H](NC(=O)c2cccc(C(F)(F)F)c2)[C@@H](c2ccc(F)cc2)c2c(C/C=C/C(=O)NCCCO)nn(-c3ccccc3)c21 (racemic) [Compound I-24]	1000 to 3000 nM	1000 to 3000 nM	
CCN1C(=O)[C@@H](NC(=O)c2ccc(C)c(C(F)(F)F)c2)[C@@H](C2CC2)c2c(C(=O)N3[C@H](C#N)C[C@H]4C[C@H]43)nn(C3CCOCC3)c21 [Compound I-627]	≤ 200 nM		≤ 200 nM
CCN1C(=O)[C@@H](NC(=O)c2cccc(C(F)(F)F)c2)[C@@H](c2ccc(F)cc2)c2c(NC(=O)C#CCN(C)C)nn(-c3ccccc3)c21 (racemic) [Compound I-93, rac-N-((4R,5R)-3-(4-(dimethylamino)but-2-ynamido)-7-ethyl-4-(4-fluorophenyl)-6-oxo-1-phenyl-4,5,6,7-tetrahydro-1H-pyrazolo[3,4-b]pyridine-5-yl)-3-(trifluoromethyl)benzamide]	≤ 200 nM	≤ 200 nM	
CCN1C(=O)[C@@H](NC(=O)c2cccc(C(F)(F)F)c2)[C@H](c2ccc(F)cc2)c2c(CN(C)C#N)nn(-c3ccccc3)c21 (single isomer, unassigned) [Compound I-133]	200 to 1000 nM	200 to 1000 nM	
CCN1C(=O)[C@@H](NC(=O)c2cccc(C(F)(F)F)c2)[C@@H](c2ccc(F)cc2)c2c([C@H](O)CNC#N)nn(-c3ccccc3)c21 (racemic) [Compound I-9, rac-N-((4R,5R)-3-(2-cyanamido-1-hydroxyethyl)-7-ethyl-4-(4-fluorophenyl)-6-oxo-1-phenyl-4,5,6,7-tetrahydro-1H-pyrazolo[3,4-b]pyridin-5-yl)-3-(trifluoromethyl)benzamide]	1000 to 3000 nM	200 to 1000 nM	
CCN1C(=O)[C@@H](NC(=O)c2cccc(C(F)(F)F)c2)[C@@H](c2ccc(F)cc2)c2c(C/C=C/C(=O)N(C)C)nn(-c3ccccc3)c21 (racemic) [Compound I-41]	1000 to 3000 nM	1000 to 3000 nM	
CCN1C(=O)[C@@H](NC(=O)C2CCN(C)CC2)[C@@H](C2CC2)c2c(C(=O)N3[C@H](C#N)C[C@H]4C[C@H]43)nn(C3CCOCC3)c21 [Compound I-423]	1000 to 3000 nM	1000 to 3000 nM	
C/C=C(\C)S(=O)(=O)NCc1nn(-c2ccccc2)c2c1[C@H](c1ccc(F)cc1)[C@H](NC(=O)c1cccc(C(F)(F)F)c1)C(=O)N2CC (racemic) [Compound I-159]	200 to 1000 nM	1000 to 3000 nM	
CCN1C(=O)[C@@H](NC(=O)COc2ccc3c(c2)CCC3)[C@@H](C2CC2)c2c(C(=O)N3[C@H](C#N)C[C@H]4C[C@H]43)nn(C3CCOCC3)c21 [Compound I-554]	1000 to 3000 nM	1000 to 3000 nM	
CCN1C(=O)[C@@H](NC(=O)c2cccc(C(F)(F)F)c2)[C@@H](C2CC2)c2c(CN(C)C#N)nn(-c3ccccc3)c21 [Compound I-111]	200 to 1000 nM	1000 to 3000 nM	

SMILES	IC50 [1]	IC50 [2]	IC50 [3]
CCN1C(=O)[C@@H](NC(=O)c2cccc(C(F)(F)F)c2)[C@@H](c2ccc(F)cc2)c2c(CNC(=O)/C=C/C(=O)OC(C)(C)C)nn(-c3ccccc3)c21 (racemic) [Compound I-45, tert-butyl I-4-((((4S,5S)-7-ethyl-4-(4-fluorophenyl)-6-oxo-1-phenyl-5-(3-(trifluoromethyl)benzamido)-4,5,6,7-tetrahydro-1H-pyrazolo[3,4-b]pyridine-3-yl)methyl)amino)-4-oxobut-2-enoate]	≤ 200 nM	1000 to 3000 nM	
CCN1C(=O)[C@@H](NC(=O)c2cccc(C(F)(F)F)c2)[C@@H](c2ccc(F)cc2)c2c(/C=C3\CCC(=O)N3)nn(-c3ccccc3)c21 (racemic) [Compound I-39, rac-N-((4R,5R)-7-ethyl-4-(4-fluorophenyl)-6-oxo-3-((E)-(5-oxopyrrolidin-2-ylidene)methyl)-1-phenyl-4,5,6,7-tetrahydro-1H-pyrazolo[3,4-b]pyridin-5-yl)-3-(trifluoromethyl)benzamide]	1000 to 3000 nM	1000 to 3000 nM	
C=C(COC)C(=O)NCc1nn(-c2ccccc2)c2c1[C@@H](c1ccc(F)cc1)[C@H](NC(=O)c1cccc(C(F)(F)F)c1)C(=O)N2CC [Compound I-109]	200 to 1000 nM	200 to 1000 nM	
CCN1C(=O)[C@@H](NC(=O)c2cccc(C(F)(F)F)c2)[C@@H](c2ccc(F)cc2)c2c(CC/C=C\C(=O)N(C)C)nn(-c3ccccc3)c21 (racemic) [Compound I-69]	200 to 1000 nM	200 to 1000 nM	
CCN1C(=O)[C@@H](NC(=O)c2cccc(F)c2)[C@@H](C2CC2)c2c(C(=O)N3[C@H](C#N)C[C@H]4C[C@H]43)nn(C3CCOCC3)c21 [Compound I-690]	≤ 200 nM	200 to 1000 nM	
CCN1C(=O)[C@@H](NC(=O)CS(C)(=O)=O)[C@@H](C2CC2)c2c(C(=O)N3[C@H](C#N)C[C@H]4C[C@H]43)nn(C3CCOCC3)c21 [Compound I-546]	1000 to 3000 nM	1000 to 3000 nM	
CCN1C(=O)[C@@H](NC(=O)c2cc(C)n(C(C)(C)C)n2)[C@@H](C2CC2)c2c(C(=O)N3[C@H](C#N)C[C@H]4C[C@H]43)nn(C3CCOCC3)c21 [Compound I-691]	≤ 200 nM	1000 to 3000 nM	
CCN1C(=O)[C@@H](NC(=O)C(C)c2cccc(F)c2)[C@@H](C2CC2)c2c(C(=O)N3[C@H](C#N)C[C@H]4C[C@H]43)nn(C3CCOCC3)c21 (some centres unmarked) [Compound I-440]	1000 to 3000 nM	1000 to 3000 nM	
CCN1C(=O)[C@@H](NC(=O)C2CC(=O)N(Cc3ccccc3)C2)[C@@H](C2CC2)c2c(C(=O)N3[C@H](C#N)C[C@H]4C[C@H]43)nn(C3CCOCC3)c21 (some centres unmarked) [Compound I-435]	1000 to 3000 nM	1000 to 3000 nM	
CCN1C(=O)[C@@H](NC(=O)c2sc(NC(C)=O)nc2C)[C@@H](C2CC2)c2c(C(=O)N3[C@H](C#N)C[C@H]4C[C@H]43)nn(C3CCOCC3)c21 [Compound I-471]	1000 to 3000 nM	1000 to 3000 nM	
CCN1C(=O)[C@@H](NC(=O)c2cccc(C(F)(F)F)c2)[C@@H](c2ccc(F)cc2)c2c(CNC(=O)C34CC3C4)nn(-c3ccccc3)c21 (stereo partly drawn) [Compound I-114, N-[[(4S, 5S)-7-ethyl-4-(4-fluorophenyl)-6-oxo-1-phenyl-5-[[3-(trifluoromethyl)benzoyl]amino]-4,5-dihydropyrazolo[3,4-b]pyridine-3-yl]methyl]bicyclo[1.1.0]butane-1-carboxamide]	200 to 1000 nM	200 to 1000 nM	
CCN1C(=O)[C@@H](NC(=O)c2cccc(C(F)(F)F)c2)[C@@H](c2ccc(F)cc2)c2c(CNC(=O)/C=C/C(=O)NCCN(C)C)nn(-c3ccccc3)c21 (racemic) [Compound I-154, rac-N1-(2-(dimethylamino)ethyl)-N4-(((4R,5R)-7-ethyl-4-(4-fluorophenyl)-6-oxo-1-phenyl-5-(3-(trifluoromethyl)benzamido)-4,5,6,7-tetrahydro-1H-pyrazolo[3,4-b]pyridine-3-yl)methyl)fumaramide]	≤ 200 nM	200 to 1000 nM	
CCN1C(=O)[C@@H](NC(=O)CC2CCCc3ccccc32)[C@@H](C2CC2)c2c(C(=O)N3[C@H](C#N)C[C@H]4C[C@H]43)nn(C3CCOCC3)c21 (some centres unmarked) [Compound I-663]	1000 to 3000 nM	1000 to 3000 nM	
CCC(=O)N[C@@H]1C(=O)N(CC)c2c(c(C(=O)N3[C@H](C#N)C[C@H]4C[C@H]43)nn2C2CCOCC2)[C@@H]1C1CC1 [Compound I-696]	1000 to 3000 nM	1000 to 3000 nM	
CCN1C(=O)[C@@H](NC(=O)c2cccc(C(F)(F)F)c2)[C@H](c2ccc(F)cc2)c2c(CNC(=O)C3=C(C(=O)OC)CCC3)nn(-c3ccccc3)c21 (racemic) [Compound I-71]	200 to 1000 nM	200 to 1000 nM	
